# Source: article PMC5290327, “SC83288 is a clinical development candidate for the treatment of severe malaria” (Nature Communications, 2017)
# Key:
# Assay in all cases: KINOMEscan
# Format in all cases: binding
# Conditions in all cases: read-out: Remaining enzyme activity
# [1] = target: T1, PFTAIRE2 (Homo sapiens, UniProt Q96Q40)
# T1 construct: purchased Ambit (DiscoverX) KINOMEscan; Cerep
# How it was run: (§1)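 Competition binding: DNA-tagged kinase, immobilized active-site ligand and test compound were combined, and kinase left on beads was quantified by qPCR of the DNA tag. Kinases were T7 phage fusions grown in a BL21-derived E. coli host or were expressed in HEK-293 cells. SC81458 was tested at 10 μM final.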
# [2] = target: T2, BMX (Homo sapiens, UniProt P51813)
# T2 construct: purchased Ambit (DiscoverX) KINOMEscan; Cerep
# How it was run: as §1
# [3] = target: T3, EPHA5 (Homo sapiens, UniProt P54756)
# T3 construct: purchased Ambit (DiscoverX) KINOMEscan; Cerep
# How it was run: as §1
# [4] = target: T4, KIT(L576P) (Homo sapiens, UniProt P10721, L576P)
# T4 construct: purchased Ambit (DiscoverX) KINOMEscan; Cerep
# T4 sequence (P10721 26-976 L576P): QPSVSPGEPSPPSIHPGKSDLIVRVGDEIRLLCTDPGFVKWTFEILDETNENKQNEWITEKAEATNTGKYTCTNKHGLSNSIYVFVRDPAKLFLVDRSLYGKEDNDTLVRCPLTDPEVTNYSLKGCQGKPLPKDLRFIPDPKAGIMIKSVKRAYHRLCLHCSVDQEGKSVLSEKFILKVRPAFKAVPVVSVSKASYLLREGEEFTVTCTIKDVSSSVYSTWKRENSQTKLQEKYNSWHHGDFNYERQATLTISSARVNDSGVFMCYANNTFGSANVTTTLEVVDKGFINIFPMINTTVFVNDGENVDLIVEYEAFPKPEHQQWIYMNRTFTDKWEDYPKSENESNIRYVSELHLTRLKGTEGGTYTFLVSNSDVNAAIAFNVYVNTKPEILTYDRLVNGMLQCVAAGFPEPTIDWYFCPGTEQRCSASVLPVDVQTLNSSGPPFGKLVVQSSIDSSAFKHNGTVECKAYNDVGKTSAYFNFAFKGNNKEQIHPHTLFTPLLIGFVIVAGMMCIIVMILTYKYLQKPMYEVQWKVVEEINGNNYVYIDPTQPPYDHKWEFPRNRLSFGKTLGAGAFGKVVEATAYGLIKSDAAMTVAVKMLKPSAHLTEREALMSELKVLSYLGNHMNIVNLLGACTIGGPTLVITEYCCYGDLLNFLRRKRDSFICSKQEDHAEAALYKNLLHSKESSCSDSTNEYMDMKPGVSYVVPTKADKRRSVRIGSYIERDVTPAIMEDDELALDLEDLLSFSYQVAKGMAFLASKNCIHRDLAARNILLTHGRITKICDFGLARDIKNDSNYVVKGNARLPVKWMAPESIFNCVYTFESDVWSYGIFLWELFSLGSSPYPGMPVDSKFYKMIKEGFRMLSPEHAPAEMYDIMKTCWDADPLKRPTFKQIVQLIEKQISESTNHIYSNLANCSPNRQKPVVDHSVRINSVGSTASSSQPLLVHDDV
# How it was run: as §1
# [5] = target: T5, TNIK (Homo sapiens, UniProt Q9UKE5)
# T5 construct: purchased Ambit (DiscoverX) KINOMEscan; Cerep
# How it was run: as §1
# [6] = target: T6, OSR1 (Homo sapiens, UniProt O95747)
# T6 construct: purchased Ambit (DiscoverX) KINOMEscan; Cerep
# How it was run: as §1
# [7] = target: T7, PKMYT1 (Homo sapiens, UniProt Q99640)
# T7 construct: purchased Ambit (DiscoverX) KINOMEscan; Cerep
# How it was run: as §1
# [8] = target: T8, HIPK4 (Homo sapiens, UniProt Q8NE63)
# T8 construct: purchased Ambit (DiscoverX) KINOMEscan; Cerep
# How it was run: as §1
# [9] = target: T9, RPS6KA5(Kin.Dom.1-N-term) (Homo sapiens, UniProt O75582)
# T9 construct: RPS6KA5(Kin.Dom.1-N-term); purchased Ambit (DiscoverX) KINOMEscan; Cerep
# T9 sequence (O75582 49-318 limits assumed): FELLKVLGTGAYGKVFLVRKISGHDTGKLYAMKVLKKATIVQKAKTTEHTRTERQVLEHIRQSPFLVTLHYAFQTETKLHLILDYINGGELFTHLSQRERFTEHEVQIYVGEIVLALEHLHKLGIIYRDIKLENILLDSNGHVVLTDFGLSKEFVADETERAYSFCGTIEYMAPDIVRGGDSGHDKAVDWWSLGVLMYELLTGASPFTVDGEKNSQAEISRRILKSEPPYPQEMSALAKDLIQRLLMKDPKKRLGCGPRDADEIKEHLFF
# How it was run: as §1
# [10] = target: T10, CAMK1 (Homo sapiens, UniProt Q14012)
# T10 construct: purchased Ambit (DiscoverX) KINOMEscan; Cerep
# How it was run: as §1
# [11] = target: T11, STK33 (Homo sapiens, UniProt Q9BYT3)
# T11 construct: purchased Ambit (DiscoverX) KINOMEscan; Cerep
# How it was run: as §1
# [12] = target: T12, TTK (Homo sapiens, UniProt P33981)
# T12 construct: purchased Ambit (DiscoverX) KINOMEscan; Cerep
# T12 sequence (P33981 whole entry): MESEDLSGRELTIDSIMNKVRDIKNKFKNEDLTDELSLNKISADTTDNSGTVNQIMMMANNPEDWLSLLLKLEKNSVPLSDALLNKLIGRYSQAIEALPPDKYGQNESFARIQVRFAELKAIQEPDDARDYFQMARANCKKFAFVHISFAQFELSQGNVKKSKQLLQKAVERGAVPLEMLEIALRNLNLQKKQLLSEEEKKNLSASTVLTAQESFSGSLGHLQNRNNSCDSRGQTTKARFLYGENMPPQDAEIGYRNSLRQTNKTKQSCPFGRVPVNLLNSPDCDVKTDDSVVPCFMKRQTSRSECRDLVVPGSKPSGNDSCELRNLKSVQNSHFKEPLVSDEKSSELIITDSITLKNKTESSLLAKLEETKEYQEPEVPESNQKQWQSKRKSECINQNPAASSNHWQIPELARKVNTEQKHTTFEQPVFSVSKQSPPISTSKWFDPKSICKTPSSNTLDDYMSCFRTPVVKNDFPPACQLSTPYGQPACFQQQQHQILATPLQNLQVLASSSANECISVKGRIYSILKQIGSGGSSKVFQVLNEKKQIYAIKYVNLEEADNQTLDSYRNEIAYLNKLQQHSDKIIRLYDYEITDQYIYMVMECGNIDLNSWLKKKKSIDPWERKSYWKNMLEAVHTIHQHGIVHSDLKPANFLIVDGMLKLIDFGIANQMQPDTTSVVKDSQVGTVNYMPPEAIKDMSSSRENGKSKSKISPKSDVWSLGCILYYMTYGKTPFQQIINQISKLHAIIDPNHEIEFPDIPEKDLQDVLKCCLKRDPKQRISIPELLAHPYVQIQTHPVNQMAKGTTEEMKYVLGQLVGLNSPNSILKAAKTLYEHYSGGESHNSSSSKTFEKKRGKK
# How it was run: as §1
# [13] = target: T13, DMPK (Homo sapiens, UniProt Q09013)
# T13 construct: purchased Ambit (DiscoverX) KINOMEscan; Cerep
# How it was run: as §1
# [14] = target: T14, MLK2 (Homo sapiens, UniProt Q02779)
# T14 construct: purchased Ambit (DiscoverX) KINOMEscan; Cerep
# T14 sequence (Q02779 whole entry): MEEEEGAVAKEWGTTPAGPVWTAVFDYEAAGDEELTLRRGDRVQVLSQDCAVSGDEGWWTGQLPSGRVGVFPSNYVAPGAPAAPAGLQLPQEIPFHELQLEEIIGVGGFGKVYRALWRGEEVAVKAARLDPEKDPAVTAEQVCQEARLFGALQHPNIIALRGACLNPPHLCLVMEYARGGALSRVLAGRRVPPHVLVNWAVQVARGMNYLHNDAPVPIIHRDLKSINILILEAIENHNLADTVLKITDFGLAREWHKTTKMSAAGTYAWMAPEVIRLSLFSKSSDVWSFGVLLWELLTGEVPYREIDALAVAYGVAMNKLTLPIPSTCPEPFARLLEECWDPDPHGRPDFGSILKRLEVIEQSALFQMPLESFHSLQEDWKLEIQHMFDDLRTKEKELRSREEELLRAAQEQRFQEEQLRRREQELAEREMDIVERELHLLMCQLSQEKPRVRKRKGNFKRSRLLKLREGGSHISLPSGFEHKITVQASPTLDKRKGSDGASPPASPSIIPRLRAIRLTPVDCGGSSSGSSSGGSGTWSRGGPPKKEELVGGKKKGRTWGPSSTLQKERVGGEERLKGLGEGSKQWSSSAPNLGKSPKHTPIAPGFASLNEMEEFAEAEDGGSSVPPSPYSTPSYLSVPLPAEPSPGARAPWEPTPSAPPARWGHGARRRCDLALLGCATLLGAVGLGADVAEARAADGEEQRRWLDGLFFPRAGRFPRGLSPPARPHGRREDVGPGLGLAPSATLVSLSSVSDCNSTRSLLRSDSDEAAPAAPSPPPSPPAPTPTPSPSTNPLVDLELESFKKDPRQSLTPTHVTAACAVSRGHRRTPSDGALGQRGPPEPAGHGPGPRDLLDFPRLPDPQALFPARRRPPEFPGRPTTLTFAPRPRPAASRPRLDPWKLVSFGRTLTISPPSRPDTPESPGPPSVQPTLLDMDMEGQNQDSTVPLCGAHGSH
# How it was run: as §1
# [15] = target: T15, GCN2(kin.Dom.2, S808G) (Homo sapiens, UniProt Q9P2K8, S808G)
# T15 construct: GCN2(kin.Dom.2, S808G); purchased Ambit (DiscoverX) KINOMEscan; Cerep
# How it was run: as §1
# [16] = target: T16, MEK3 (Homo sapiens, UniProt P46734)
# T16 construct: purchased Ambit (DiscoverX) KINOMEscan; Cerep
# How it was run: as §1
# [17] = target: T17, CAMK2a (Homo sapiens, UniProt Q9UQM7)
# T17 construct: purchased Ambit (DiscoverX) KINOMEscan; Cerep
# T17 sequence (Q9UQM7 whole entry): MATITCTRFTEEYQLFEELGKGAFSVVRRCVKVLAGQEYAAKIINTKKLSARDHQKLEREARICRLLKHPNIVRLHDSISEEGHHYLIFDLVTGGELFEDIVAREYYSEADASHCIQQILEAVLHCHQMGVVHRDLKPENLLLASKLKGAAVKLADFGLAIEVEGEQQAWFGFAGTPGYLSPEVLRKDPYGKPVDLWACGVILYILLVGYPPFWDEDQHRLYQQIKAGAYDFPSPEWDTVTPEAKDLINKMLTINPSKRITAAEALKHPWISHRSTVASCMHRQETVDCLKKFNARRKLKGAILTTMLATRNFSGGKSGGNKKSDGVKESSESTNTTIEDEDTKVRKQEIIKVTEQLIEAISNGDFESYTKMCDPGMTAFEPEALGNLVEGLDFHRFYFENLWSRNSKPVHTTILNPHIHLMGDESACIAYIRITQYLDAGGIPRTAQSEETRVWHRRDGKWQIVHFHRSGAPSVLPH
# How it was run: as §1
# [18] = target: T18, RPS6KA6(Kin.Dom.1-N-term) (Homo sapiens, UniProt Q9UK32)
# T18 construct: RPS6KA6(Kin.Dom.1-N-term); purchased Ambit (DiscoverX) KINOMEscan; Cerep
# T18 sequence (Q9UK32 73-330 limits assumed): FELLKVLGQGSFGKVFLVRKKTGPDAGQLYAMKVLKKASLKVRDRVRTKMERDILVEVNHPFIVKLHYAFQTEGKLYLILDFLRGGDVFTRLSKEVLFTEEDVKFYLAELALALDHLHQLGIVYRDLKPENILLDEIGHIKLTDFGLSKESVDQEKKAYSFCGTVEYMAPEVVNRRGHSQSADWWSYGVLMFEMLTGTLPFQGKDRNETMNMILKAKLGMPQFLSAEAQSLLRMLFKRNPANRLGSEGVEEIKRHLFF
# How it was run: as §1
# [19] = target: T19, ABL1(F317L) (Homo sapiens, UniProt P00519, F317L)
# T19 construct: purchased Ambit (DiscoverX) KINOMEscan; Cerep
# How it was run: as §1
# [20] = target: T20, YES (Homo sapiens, UniProt P07947)
# T20 construct: purchased Ambit (DiscoverX) KINOMEscan; Cerep
# T20 sequence (P07947 whole entry): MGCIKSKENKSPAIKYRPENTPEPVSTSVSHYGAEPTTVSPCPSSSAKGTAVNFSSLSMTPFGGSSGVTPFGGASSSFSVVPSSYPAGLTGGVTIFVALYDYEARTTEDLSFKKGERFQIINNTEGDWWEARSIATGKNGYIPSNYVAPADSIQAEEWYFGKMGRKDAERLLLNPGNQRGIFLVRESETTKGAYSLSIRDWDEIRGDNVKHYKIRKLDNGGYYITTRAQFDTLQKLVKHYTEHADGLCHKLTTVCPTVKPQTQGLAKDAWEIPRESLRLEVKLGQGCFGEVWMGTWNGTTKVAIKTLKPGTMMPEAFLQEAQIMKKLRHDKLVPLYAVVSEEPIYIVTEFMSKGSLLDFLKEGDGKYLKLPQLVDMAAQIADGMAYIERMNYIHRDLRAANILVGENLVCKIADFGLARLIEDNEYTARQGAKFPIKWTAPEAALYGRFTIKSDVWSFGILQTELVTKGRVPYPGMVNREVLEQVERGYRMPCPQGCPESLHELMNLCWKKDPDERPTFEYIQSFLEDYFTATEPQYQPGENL
# How it was run: as §1
# [21] = target: T21, PKAC-beta (Homo sapiens, UniProt P22694)
# T21 construct: purchased Ambit (DiscoverX) KINOMEscan; Cerep
# How it was run: as §1
# [22] = target: T22, MAK (Homo sapiens, UniProt P20794)
# T22 construct: purchased Ambit (DiscoverX) KINOMEscan; Cerep
# How it was run: as §1
# [23] = target: T23, IKK-epsilon (Homo sapiens, UniProt Q14164)
# T23 construct: purchased Ambit (DiscoverX) KINOMEscan; Cerep
# How it was run: as §1
# [24] = target: T24, LTK (Homo sapiens, UniProt P29376)
# T24 construct: purchased Ambit (DiscoverX) KINOMEscan; Cerep
# How it was run: as §1
# [25] = target: T25, VEGFR2 (Homo sapiens, UniProt P35968)
# T25 construct: purchased Ambit (DiscoverX) KINOMEscan; Cerep
# How it was run: as §1
# [26] = target: T26, ABL1(Q252H) (Homo sapiens, UniProt P00519, Q252H)
# T26 construct: purchased Ambit (DiscoverX) KINOMEscan; Cerep
# How it was run: as §1
# [27] = target: T27, MAP3K15 (Homo sapiens, UniProt Q6ZN16)
# T27 construct: purchased Ambit (DiscoverX) KINOMEscan; Cerep
# How it was run: as §1
# [28] = target: T28, NEK5 (Homo sapiens, UniProt Q6P3R8)
# T28 construct: purchased Ambit (DiscoverX) KINOMEscan; Cerep
# T28 sequence (Q6P3R8 whole entry): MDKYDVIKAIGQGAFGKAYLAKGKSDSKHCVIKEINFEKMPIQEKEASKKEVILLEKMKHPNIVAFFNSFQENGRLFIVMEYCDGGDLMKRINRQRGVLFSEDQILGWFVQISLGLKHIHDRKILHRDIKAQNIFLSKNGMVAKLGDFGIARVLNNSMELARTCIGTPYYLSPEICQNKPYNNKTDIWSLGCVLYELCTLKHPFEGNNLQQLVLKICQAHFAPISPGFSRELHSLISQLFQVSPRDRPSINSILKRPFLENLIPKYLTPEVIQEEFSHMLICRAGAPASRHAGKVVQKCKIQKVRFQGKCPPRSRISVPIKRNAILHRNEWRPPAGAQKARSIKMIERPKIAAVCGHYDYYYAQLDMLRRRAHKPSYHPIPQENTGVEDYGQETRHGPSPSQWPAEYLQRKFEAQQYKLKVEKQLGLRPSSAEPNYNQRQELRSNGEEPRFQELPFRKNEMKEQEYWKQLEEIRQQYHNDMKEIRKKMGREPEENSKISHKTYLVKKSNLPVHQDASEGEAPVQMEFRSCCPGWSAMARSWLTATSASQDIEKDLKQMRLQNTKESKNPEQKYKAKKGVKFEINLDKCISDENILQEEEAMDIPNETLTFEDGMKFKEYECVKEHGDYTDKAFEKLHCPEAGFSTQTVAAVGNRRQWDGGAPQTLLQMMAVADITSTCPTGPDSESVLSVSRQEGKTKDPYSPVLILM
# How it was run: as §1
# [29] = target: T29, p38-delta (Homo sapiens, UniProt O15264)
# T29 construct: purchased Ambit (DiscoverX) KINOMEscan; Cerep
# How it was run: as §1
# [30] = target: T30, EPHA2 (Homo sapiens, UniProt P29317)
# T30 construct: purchased Ambit (DiscoverX) KINOMEscan; Cerep
# How it was run: as §1
# [31] = target: T31, CSNK1g3 (Homo sapiens, UniProt Q9Y6M4)
# T31 construct: purchased Ambit (DiscoverX) KINOMEscan; Cerep
# How it was run: as §1
# [32] = target: T32, WEE1 (Homo sapiens, UniProt P30291)
# T32 construct: purchased Ambit (DiscoverX) KINOMEscan; Cerep
# How it was run: as §1
smiles,measurement,setting,value
"CCCCN1CCN(C(=N)c2cccc(NC(=O)Nc3ccc(S(=O)(=O)NCc4ccc(S(N)(=O)=O)cc4)cc3)c2)CC1 [SC81458, 4-(3-(3-((4-butylpiperazin-1-yl)(imino)methyl)phenyl)ureido)-N-(4-sulfamoylbenzyl) benzenesulfonamide]",remaining binding at 10 µM,[1],100%
same,remaining binding at 10 µM,[2],100%
same,remaining binding at 10 µM,[3],100%
same,remaining binding at 10 µM,[4],66%
same,remaining binding at 10 µM,[5],100%
same,remaining binding at 10 µM,[6],100%
same,remaining binding at 10 µM,[7],90%
same,remaining binding at 10 µM,[8],100%
same,remaining binding at 10 µM,[9],96%
same,remaining binding at 10 µM,[10],82%
same,remaining binding at 10 µM,[11],100%
same,remaining binding at 10 µM,[12],91%
same,remaining binding at 10 µM,[13],76%
same,remaining binding at 10 µM,[14],100%
same,remaining binding at 10 µM,[15],100%
same,remaining binding at 10 µM,[16],100%
same,remaining binding at 10 µM,[17],100%
same,remaining binding at 10 µM,[18],68%
same,remaining binding at 10 µM,[19],100%
same,remaining binding at 10 µM,[20],97%
same,remaining binding at 10 µM,[21],78%
same,remaining binding at 10 µM,[22],91%
same,remaining binding at 10 µM,[23],100%
same,remaining binding at 10 µM,[24],100%
same,remaining binding at 10 µM,[25],84%
same,remaining binding at 10 µM,[26],95%
same,remaining binding at 10 µM,[27],100%
same,remaining binding at 10 µM,[28],100%
same,remaining binding at 10 µM,[29],89%
same,remaining binding at 10 µM,[30],99%
same,remaining binding at 10 µM,[31],100%
same,remaining binding at 10 µM,[32],100%
